Ends that are not written are not given here.
Tests used:
[1] = test system: peripheral blood lymphocytes (PBL) of RA/JCA patients; assay: 6-days proliferation assay on PBLs of RA and JCA patients; assay type: cell-based, human; conditions: number of patients with PBL proliferation >2 times background; 15-mers at 1 μg/ml and 10 μ/ml
Experimental: T-cell responses to the selected peptides in patients are analysed by studying T-cell proliferation of peripheral blood lymphocytes (PBL) and synovial fluid derived cells. […] In these human studies the peptides are tested as 15-mers containing the 9-mer sequence of Table 2 as core sequence. […] This is further strengthened by the fact that, the patients were not selected for having a certain MHC haplotype. The MHC binding affinity of the selected peptides is analysed for the most-common MHC class II-arthritis associations. In Table 3 the peptide binding affinity for DRB1*0401 is shown as an example. The peptide binding affinity is tested in a MHC-peptide competition assay on isolated MHC molecules in the presence of a labelled marker peptide. The fact that of the n=12 peptides selected for binding to the rat DQ equivalent RT1.B^1, n=11 peptides also bind DRB1*0401, further confirms the promiscuous MHC binding of the selected peptides. This ensures a wide applicability of the peptides for prophylaxis, treatment, monitoring and/or diagnosis of the disease.
^ Indicated are the numbers of patients responding to tire peptides as defined in a 6-days proliferation assay on PBLs. Responses were considered positive if the proliferation (as measured by ^3H-thymidine incorporation) was >2 times background proliferation. Peptides were tested in concentrations of 1 μg/ml and 10 μ/ml.

[2] = molecular target: DRB1*0401 (Homo sapiens, UniProt P01903+P01911, A100K/A169T/F76Y/I96L/K127E/L162R/M171V/N62H/P40V/Q125Y/R42H/S133A/S149N/S66Y/V115G/V209L/W38E); assay: MHC-peptide competition binding assay on isolated DRB1*0401 molecules; conditions: DRB1*0401 1 μM, biotinylated HA-marker peptide 100 nM, peptide 0-256 μM; read-out: DRB1*0401 binding (IC50)
Experimental: T-cell responses to the selected peptides in patients are analysed by studying T-cell proliferation of peripheral blood lymphocytes (PBL) and synovial fluid derived cells. […] In these human studies the peptides are tested as 15-mers containing the 9-mer sequence of Table 2 as core sequence. […] The MHC binding affinity of the selected peptides is analysed for the most-common MHC class II-arthritis associations. […] The peptide binding affinity is tested in a MHC-peptide competition assay on isolated MHC molecules in the presence of a labelled marker peptide.
# MHC-peptide binding was measured as described in Wauben et al., Int. Immunol. […] Peptide binding is expressed as tire IC50.

[3] = test system: T cell clone A2b; assay: Recognition by A2b T-cell clone: proliferation and/or activation marker expression; assay type: cell-based, Lewis rats; conditions: positive: proliferation more than 2 times background in 2 of 4 experiments and/or activation marker upregulation in 2 of 3 experiments
Experimental: As an immediate read-out for mimicry peptides T-cell activation is measured by proliferation, TcR downregulation, expression of activation markers, and cytokines responses of clone A2b. In addition A2b-like T cells from arthritic rats are isolated, and activation of such cells is measured by, proliferation, TcR downregulation, expression of activation markers, and cytokines responses. Furthermore, T-cell lines are generated after immunisation with MT/IFA or selected peptides/DDA. The cross-reactive nature of the peptide specific T-cell responses is analysed in vitro by determining the recognition of both the self peptide as well as the mycobacterial hsp65 178-186 peptide. After testing the panel of n=65 peptides for induction of proliferation of T cell clone A2b, and/or induction of expression of activation markers, n=20 peptides (SEQ ID NOs: 15, 19, 20, 21, 22, 23, 24, 26, 30, 31, 32, 33, 35, 49, 51, 61, 63, 65, 67, 69) were considered positive. Criteria for positivity were that in 2 out of 4 experiments the induced proliferation was more than 2 times background proliferation as measured by ^3H-thymidine incorporation, and/or that in 2 out of 3 experiments upregulation of an activation marker was detectable by FACS analysis.

[4] = test system: DTH reaction; assay: Delayed type hypersensitivity reaction after peptide/DDA immunisation; assay type: in vivo, rats; conditions: challenge day 72, peptide/saline s.c. in ear; measured 24 and 48 hr
Experimental: # DTH (Delayed type hypersensitivity) reactions are induced at day 72 after immunisation of peptide/DDA, by subcutaneous injection of the peptide/saline in the ear. DTH are measured 24 and 48 hr after challenge.

[5] = test system: adjuvant arthritis; assay: Nasal peptide administration in the adjuvant arthritis model; assay type: in vivo, rats; conditions: for Day of onset / Arthritis score: 100 μg peptide nasal at days 0, 3, 7, 11, mean±sd, n=4 rats; for Arthritis score: scale 0-16
Experimental: The potential arthritis protective qualities of selected peptides/proteins are tested through nasal or oral tolerance induction in the adjuvant arthritis model.
* Adjuvant arthritis is induced at day 0 by immunisation of MT/IFA (5 mg/ml MT) at the base of the tail. At days 0, 3, 7 and 11, 100 μg peptide in 10 μl saline is administered in the nostrils. Arthritis is scored upon clinical examination on a scale from 0-16. Data are expressed as mean±sd (n=4 rats/group).

[6] = test system: arthritis; assay: Arthritis induction by immunisation with peptide in DDA adjuvant; assay type: in vivo; conditions: rats with clinical arthritis/rats immunised; 50 μg peptide in 100 μl DDA, one hind footpad
Experimental: To check the arthritogenic potential of the selected peptides, rats are immunised with 50 μg peptide in 100 μl DDA adjuvant in one hind footpad. […] Two of the five peptides show defined clinical arthritis. * Arthritis is induced by Immunisation of 50 μg peptide in 100 μl DDA adjuvants in one hind footpad and scored upon clinical examination.

[7] = molecular target: T1, MHC class II RT1.B^L (Rattus norvegicus, UniProt P20037+P29826); assay: MHC-peptide competition binding assay on isolated RT1.B^L molecules; set-up: species or system Lewis rat
T1 sequence (P20037 24-256): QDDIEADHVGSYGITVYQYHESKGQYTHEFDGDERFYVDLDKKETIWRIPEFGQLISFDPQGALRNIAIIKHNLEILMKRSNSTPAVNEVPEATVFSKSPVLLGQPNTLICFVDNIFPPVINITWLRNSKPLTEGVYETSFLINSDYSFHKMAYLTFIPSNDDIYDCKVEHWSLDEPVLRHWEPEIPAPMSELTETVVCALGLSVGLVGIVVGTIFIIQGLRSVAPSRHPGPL
T1 sequence (P29826 28-263): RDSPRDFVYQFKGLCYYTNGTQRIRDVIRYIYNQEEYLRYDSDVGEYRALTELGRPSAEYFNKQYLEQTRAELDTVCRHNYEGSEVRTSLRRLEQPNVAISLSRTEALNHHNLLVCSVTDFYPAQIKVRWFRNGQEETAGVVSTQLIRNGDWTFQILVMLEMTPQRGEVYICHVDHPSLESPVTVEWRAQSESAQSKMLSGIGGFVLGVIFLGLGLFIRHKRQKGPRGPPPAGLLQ
From the text: Because the rat self-antigen to which the A2b T-clone is reactive is not known at present time, the present inventors have designed a computer search strategy based on the interactions of the mycobacterial hsp65 178-186 peptide within the trimolecular complex of MHC class II (RT1.B^L)-mycobacterial hsp65 178-186-T-cell receptor of clone A2b, to identify relevant candidate arthritis-associated antigens that can serve as target for autoimmune T-cell mediated tissue destruction in arthritis. Within the mycobacterial hsp65 178-186 sequence, residues involved in MHC binding have been identified by using an MHC-peptide binding assay on isolated MHC class II RT1.B^L proteins. The residues which have an important role in determining the RT1.B^L binding affinity of the mycobacterial hsp65 178-186 peptide, the so-called MHC anchor residues were determined. By studying the MHC-peptide binding affinities of other non-related peptides, a general MHC-peptide binding motif for the Lewis rat RT1.B1 molecule was defined (Wauben et al., Int. Immunol. 9:281 (1997)). For the definition of residues within the minimal core sequence mycobacterial hsp65 180-186, interacting with the T-cell receptor of the A2b T cell clone, the results derived from MHC-peptide binding assays, and proliferation assays of the A2b T cell clone were integrated.
#RT1.B^L binding affinity is expressed as 50%ID (=inhibitory dose). The 50%ID value indicates the concentration of peptide needed to inhibit 50% binding of the marker peptide in a competition assay on isolated RT1.B^L molecules.

[8] = test system: T cells from inguinal and popliteal lymph nodes and spleen; assay: T-cell recognition (proliferation) during adjuvant arthritis time course; assay type: cell-based, Lewis rats; conditions: positive: proliferation more than 1.5 times background in more than 25% of organs; days 14, 19, 21, 32, 39

Q: Which results are given for “FFYFFTGSSQLEFDP [SEQ ID NO: 70, FFYFFTGSSQLEFDP]”?
A: JCA patients responding (n = 6 tested) [1]: 2; RA patients responding (n = 39 tested) [1]: 29^; IC50 [2]: < 8 µM

Q: Which “Recognition by T cell clone A2b” value [3] does the source give for “LKSVNGQIE (listed as Rattus sp.) [SEQ ID NO: 15]” here?
A: positive

Q: What about the DTH reaction [4] of the same sequence?
A: 2/2

Q: What about the Day of onset [5] of the same sequence?
A: 15.0 ± 1.7

Q: And the “Protective effect in adjuvant arthritis upon nasal administration” value ([5]; in words)?
A: protective effect

Q: What about the Arthritis score [5] of the same sequence?
A: 4.3 ± 4.8

Q: What about the “Arthritis Induction” value [6] of the same sequence?
A: 0/4

Q: With “NAMLKSICEVLDLER [SEQ ID NO: 81, NAMLKSICEVLDLER]” as the sequence, how does the “JCA patients responding (n = 6 tested)” value [1] read?
A: 1

Q: And the “RA patients responding (n = 39 tested)” value [1]?
A: 2

Q: What about the IC50 [2] of the same sequence?
A: > 256 µM

Q: “SAFWPSLPSYLDAAY [SEQ ID NO: 71, SAFWPSLPSYLDAAY]” was tested. Which “RA patients responding (n = 39 tested)” value [1] did it give?
A: 4

Q: What about the IC50 [2] of the same sequence?
A: 8 to 16 µM

Q: For “SSFWPSLPSGVDAAY [SEQ ID NO: 73, SSFWPSLPSGVDAAY]”, which “RA patients responding (n = 39 tested)” value [1] is on record?
A: 4

Q: What about the IC50 [2] of the same sequence?
A: 16 to 32 µM

Q: For TFGLQAELT [SEQ ID NO: 9, TFGLQAELT], which IC50 [7] is on record?
A: 32 to 64 µM

Q: Which IC50 [7] does the source give for TFGLQLALT [SEQ ID NO: 10, TFGLQLALT] here?
A: 128 to 256 µM

Q: TFGLQLEAT [SEQ ID NO: 11, TFGLQLEAT] was tested. Which IC50 [7] did it give?
A: 32 to 64 µM

Q: TFGLQLELA [SEQ ID NO: 12, TFGLQLELA] was tested. Which IC50 [7] did it give?
A: 32 to 64 µM

Q: “TFGLQLELT [SEQ ID NO: 3, TFGLQLELT, reference compound]” was tested. Which IC50 [7] did it give?
A: 32 to 64 µM

Q: Which results are given for “VQTAVTNID (listed as Rattus sp.) [SEQ ID NO: 53]”?
A: T-cell recognition during adjuvant arthritis [8]: positive; DTH reaction [4]: 2/2; Arthritis Induction [6]: 0/4

Q: How did the “Recognition by T cell clone A2b” value [3] turn out when “VSSFSLNVE (listed as Rattus sp.) [SEQ ID NO: 26]” was run?
A: positive

Q: And the DTH reaction [4]?
A: 2/2

Q: What about the Day of onset [5] of the same sequence?
A: 13.0 ± 0

Q: And the Arthritis score [5]?
A: 11.0 ± 3.5

Q: What about the “Arthritis Induction” value [6] of the same sequence?
A: 0/4

Q: Which “T-cell recognition during adjuvant arthritis” value [8] does the source give for “WPSLPSGLD (listed as Rattus sp.) [SEQ ID NO: 50]” here?
A: positive

Q: What about the DTH reaction [4] of the same sequence?
A: 0/2

Q: What about the Day of onset [5] of the same sequence?
A: 14.3 ± 2.0

Q: And the Arthritis score [5]?
A: 11.3 ± 3.8

Q: And the “Arthritis Induction” value [6]?
A: 2/4

Q: How did the DTH reaction [4] turn out when “WPSLPSNMD (listed as Rattus sp.) [SEQ ID NO: 48]” was run?
A: 0/2

Q: What about the Day of onset [5] of the same sequence?
A: 13.3 ± 1.0

Q: And the Arthritis score [5]?
A: 10.5 ± 1.7

Q: And the “Arthritis Induction” value [6]?
A: 1/4

— patent US6673770B1, “Peptides for the treatment, prophylaxis, diagnosis and monitoring of autoimmune diseases” (Upither B.V., priority 1998, dated 2004)
